Like-named read-outs stand apart in the source and are kept apart here.
Legend:
c-KIT kinase (uKIT) = c-KIT kinase (uKIT) (Homo sapiens (Human), UniProt P10721); test: Biochemical Assay for uKIT (coupled pyruvate kinase/lactate dehydrogenase assay); settings: Inhibition of biochemical activity of uKIT kinase; 1 mM ATP
In short: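 IC50 from percent inhibition of reaction rate over 2-3 h, relative to no-compound and known-inhibitor controls. KIT enzyme (16 nM or 4.36 nM, two sequences) ran with 1 mM ATP and 0.7 mg/mL PE4Y in Tris pH 7.5, 30° C; ATP turnover coupled to NADH loss at 340 nm.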

Ba/F3 KIT mutant cells = test: Ba/F3 mutant KIT Cell Proliferation Assays (resazurin); format: cell-based; settings: Mus musculus, BaF3
In short: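 IC50 values come from resazurin fluorescence (ex 540, em 600) after 5 h dye exposure, added as a 440 μM solution. Cells were IL-3-independent Ba/F3 expressing mutant KIT from a lentiviral vector, puromycin-selected.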

GIST 430 cells = test: GIST 430 Cell Proliferation Assay (resazurin); format: cell-based; settings: Homo sapiens; GIST430 cell proliferation
In short: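 Five thousand cells per well were exposed to serially diluted compound in complete growth medium for 115 h at 37 degrees Celsius, 5% CO2. Resazurin was then added for a further 5 h, fluorescence read at 540 nm excitation/600 nm emission, and IC50 values calculated.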

[1] = Ba/F3 KIT AYdup mutant cell proliferation, read-out: AYdup IC50
[2] = Ba/F3 KIT AYdup-D816G mutant cell proliferation, read-out: AYdup-D816G IC50
[3] = Ba/F3 KIT AYdup-V654A mutant cell proliferation, read-out: AYdup-V654A IC50
[4] = Ba/F3 KIT exon11del-V654A mutant cell proliferation, read-out: exon11del-V654A IC50
[5] = Ba/F3 KIT exon11del-Y823D mutant cell proliferation, read-out: exon11del-Y823D IC50

Sequence of c-KIT kinase (uKIT) (P10721 other isoform, or with tags, fused parts or gaps): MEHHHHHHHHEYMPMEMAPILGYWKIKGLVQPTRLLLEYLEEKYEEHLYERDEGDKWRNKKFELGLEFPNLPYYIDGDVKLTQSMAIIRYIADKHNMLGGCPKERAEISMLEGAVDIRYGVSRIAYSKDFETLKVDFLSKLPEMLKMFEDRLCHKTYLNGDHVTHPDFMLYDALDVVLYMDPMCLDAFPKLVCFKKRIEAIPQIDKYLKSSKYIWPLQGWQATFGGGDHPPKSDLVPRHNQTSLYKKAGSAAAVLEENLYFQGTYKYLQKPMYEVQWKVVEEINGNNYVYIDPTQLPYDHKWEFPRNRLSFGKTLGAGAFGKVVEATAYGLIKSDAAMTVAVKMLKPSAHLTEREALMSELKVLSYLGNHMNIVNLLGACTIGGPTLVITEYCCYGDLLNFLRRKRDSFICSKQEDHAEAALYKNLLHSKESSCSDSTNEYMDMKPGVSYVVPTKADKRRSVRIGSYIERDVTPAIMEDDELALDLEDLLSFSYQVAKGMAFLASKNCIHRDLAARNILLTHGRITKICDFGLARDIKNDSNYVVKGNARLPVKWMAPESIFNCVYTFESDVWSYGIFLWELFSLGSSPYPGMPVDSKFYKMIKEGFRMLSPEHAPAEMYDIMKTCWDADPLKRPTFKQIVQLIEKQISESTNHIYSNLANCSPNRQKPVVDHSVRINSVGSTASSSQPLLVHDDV

Compound	IC50 (c-KIT kinase (uKIT))	IC50 (Ba/F3 KIT mutant cells; [1])	IC50 (Ba/F3 KIT mutant cells; [2])	IC50 (Ba/F3 KIT mutant cells; [3])	IC50 (Ba/F3 KIT mutant cells; [4])	IC50 (Ba/F3 KIT mutant cells; [5])	IC50 (GIST 430 cells)
CC(C)(F)CCNC(=O)Nc1ccc(Nc2ncnc3cc(OC[C@@H]4CCCO4)cc(F)c23)cc1 [Example 162]	≤ 10 nM	≤ 10 nM	10 to 100 nM	10 to 100 nM	10 to 100 nM	10 to 100 nM	10 to 100 nM
COCCOc1cc(F)c2c(Nc3ccc(NC(=O)CC(=O)N(C(C)C)C(C)C)cc3)ncnc2c1 [Example 163]	100 to 1000 nM			100 to 1000 nM	> 1000 nM	100 to 1000 nM	100 to 1000 nM
COCCOc1cc(F)c2c(Nc3ccc(NC(=O)CC(=O)N4CCC(F)(F)CC4)cc3)ncnc2c1 [Example 164]	10 to 100 nM			100 to 1000 nM	100 to 1000 nM	100 to 1000 nM	10 to 100 nM
COCCOc1cc(F)c2c(Nc3ccc(NC(=O)CC(=O)N4CCCC(F)(F)C4)cc3)ncnc2c1 [Example 165]	10 to 100 nM			10 to 100 nM	100 to 1000 nM	100 to 1000 nM	10 to 100 nM
COCCOc1cc(F)c2c(Nc3ccc(NC(=O)CC(=O)N4CCCC(C)(C)C4)cc3)ncnc2c1 [Example 166]	10 to 100 nM			10 to 100 nM	10 to 100 nM	10 to 100 nM	10 to 100 nM
COCCOc1cc(F)c2c(Nc3ccc(NC(=O)CC(=O)N4CCC4(C)C)cc3)ncnc2c1 [Example 167]	10 to 100 nM			10 to 100 nM	100 to 1000 nM	100 to 1000 nM	10 to 100 nM
COCCOc1cc(F)c2c(Nc3ccc(NC(=O)CC(=O)NC4CCC4(C)C)cc3)ncnc2c1 (stereo not shown) [Example 168]	10 to 100 nM			10 to 100 nM	10 to 100 nM	10 to 100 nM	≤ 10 nM
COCCOc1cc(F)c2c(Nc3ccc(NC(=O)CC(=O)N4CCCC4C(F)(F)F)cc3)ncnc2c1 (stereo not shown) [Example 169]	10 to 100 nM			10 to 100 nM	100 to 1000 nM	100 to 1000 nM	10 to 100 nM
COCCOc1cc(F)c2c(Nc3ccc(NC(=O)CC(=O)N4CCCC[C@@H]4C(F)(F)F)cc3)ncnc2c1 [Example 170]	10 to 100 nM			10 to 100 nM	10 to 100 nM	10 to 100 nM	10 to 100 nM
COCCOc1cc(F)c2c(Nc3ccc(NC(=O)CC(=O)N4CCCC[C@H]4C(F)(F)F)cc3)ncnc2c1 [Example 171]	10 to 100 nM			10 to 100 nM	10 to 100 nM	≤ 10 nM	10 to 100 nM
CN1CC[C@H](Oc2cc(F)c3c(Nc4ccc(NC(=O)NCCC(C)(C)F)cc4)ncnc3c2)C1 [Example 172]	10 to 100 nM			10 to 100 nM	10 to 100 nM	10 to 100 nM	10 to 100 nM
CN1CC[C@@H](Oc2cc(F)c3c(Nc4ccc(NC(=O)NCCC(C)(C)F)cc4)ncnc3c2)C1 [Example 173]	≤ 10 nM			10 to 100 nM	10 to 100 nM	10 to 100 nM	10 to 100 nM
CC(C)(F)CCNC(=O)Nc1ccc(Nc2ncnc3cc(OC4CCC4)cc(F)c23)cc1 [Example 174]	≤ 10 nM			10 to 100 nM	10 to 100 nM	10 to 100 nM	100 to 1000 nM
CC(C)(F)CCNC(=O)Nc1ccc(Nc2ncnc3cc(OC4COC4)cc(F)c23)cc1 [Example 175]	≤ 10 nM			10 to 100 nM	10 to 100 nM	10 to 100 nM	10 to 100 nM
COCCOc1cc(OC)c2c(Nc3ccc(NC(=O)CC(=O)NC4CCCC4)cc3)ncnc2c1 [Example 176]	10 to 100 nM	10 to 100 nM	10 to 100 nM	10 to 100 nM	100 to 1000 nM	10 to 100 nM	10 to 100 nM
COCCOc1cc(OC)c2c(Nc3ccc(NC(=O)CC(=O)NC(C)(C)C)cc3)ncnc2c1 [Example 177]	10 to 100 nM			10 to 100 nM	100 to 1000 nM	100 to 1000 nM	10 to 100 nM
COCCOc1cc(F)c2c(Nc3ccc(NC(=O)CC(=O)N4C[C@@H](C)O[C@@H](C)C4)cc3)ncnc2c1 [Example 179]	100 to 1000 nM			100 to 1000 nM	100 to 1000 nM	100 to 1000 nM	100 to 1000 nM

Compound	IC50 (c-KIT kinase (uKIT))	IC50 (Ba/F3 KIT mutant cells; [1])	IC50 (Ba/F3 KIT mutant cells; [2])	IC50 (Ba/F3 KIT mutant cells; [3])	IC50 (Ba/F3 KIT mutant cells; [4])	IC50 (Ba/F3 KIT mutant cells; [5])	IC50 (GIST 430 cells)
COCCOc1cc(OC)c2c(Nc3ccc(NC(=O)NCCC(C)(C)F)cc3)ncnc2c1 [Example 181]	≤ 10 nM			10 to 100 nM	10 to 100 nM	≤ 10 nM	10 to 100 nM
COCCOc1cc(OC)c2c(Nc3ccc(NC(=O)NCCC(C)(C)C#N)cc3)ncnc2c1 [Example 182]	10 to 100 nM			10 to 100 nM	10 to 100 nM	10 to 100 nM	10 to 100 nM
COCCOc1cc(OC)c2c(Nc3ccc(NC(=O)CC(=O)NC4CCC4)cc3)ncnc2c1 [Example 183]	10 to 100 nM			≤ 10 nM	10 to 100 nM	10 to 100 nM	10 to 100 nM
CCN(CC)C(=O)CC(=O)Nc1ccc(Nc2ncnc3cc(OCCOC)cc(F)c23)cc1 [Example 184]	10 to 100 nM			≤ 10 nM	100 to 1000 nM	100 to 1000 nM	10 to 100 nM
COCCOc1cc(F)c2c(Nc3ccc(NC(=O)CC(=O)N4CCOCC4)cc3)ncnc2c1 [Example 185]	100 to 1000 nM			> 1000 nM	> 1000 nM	> 1000 nM	100 to 1000 nM
COCCOc1cc(F)c2c(Nc3ccc(NC(=O)CC(=O)N4CCCC4)cc3)ncnc2c1 [Example 186]	100 to 1000 nM			> 1000 nM	> 1000 nM	> 1000 nM	> 1000 nM
COCCOc1cc(F)c2c(Nc3ccc(NC(=O)CC(=O)N4CCCCC4)cc3)ncnc2c1 [Example 187]	100 to 1000 nM			100 to 1000 nM	> 1000 nM	> 1000 nM	100 to 1000 nM
COCCOc1cc(F)c2c(Nc3ccc(NC(=O)CC(=O)N4C5CCC4CC5)cc3)ncnc2c1 [Example 188]	10 to 100 nM			100 to 1000 nM	100 to 1000 nM	100 to 1000 nM	100 to 1000 nM
COCCOc1cc(F)c2c(Nc3ccc(NC(=O)CC(=O)N4CCCC4C(C)(C)C)cc3)ncnc2c1 (stereo not shown) [Example 189]	10 to 100 nM			100 to 1000 nM	100 to 1000 nM	100 to 1000 nM	100 to 1000 nM
COCCCc1ccc2c(Nc3ccc(NC(=O)NCCC(C)(C)F)cc3)cnnc2c1 [Example 190, 1-(3-fluoro-3-methylbutyl)-3-(4-((7-(3-methoxypropyl)cinnolin-4-yl)amino)phenyl)urea]	10 to 100 nM			10 to 100 nM	10 to 100 nM	10 to 100 nM	10 to 100 nM
COCCOc1cc(F)c2c(Nc3ccc(NC(=O)CC(=O)N4CC[C@H](C)C4)cc3)ncnc2c1 [Example 191]	10 to 100 nM			100 to 1000 nM	100 to 1000 nM	100 to 1000 nM	100 to 1000 nM
COCCOc1cc(OC)c2c(Nc3ccc(NC(=O)CC(=O)N(C)C(C)(C)C)cc3)ncnc2c1 [Example 192]	10 to 100 nM			10 to 100 nM	100 to 1000 nM	10 to 100 nM	10 to 100 nM
CC(C)(F)CCNC(=O)Nc1ccc(Nc2ncnc3cc(OCCCN4CCOCC4)cc(F)c23)cc1 [Example 195]	≤ 10 nM			10 to 100 nM	10 to 100 nM	10 to 100 nM	≤ 10 nM
COCCOc1cc(F)c2c(Nc3ccc(NC(=O)CC(=O)N4CCC[C@@H]4C)cc3)ncnc2c1 [Example 196]	10 to 100 nM			10 to 100 nM	100 to 1000 nM	100 to 1000 nM	10 to 100 nM
COCCOc1cc(F)c2c(Nc3ccc(NC(=O)CC(=O)N4CCC[C@H]4C)cc3)ncnc2c1 [Example 197]	10 to 100 nM			10 to 100 nM	100 to 1000 nM	100 to 1000 nM	10 to 100 nM
COCCOc1cc(F)c2c(Nc3ccc(NC(=O)CC(=O)N4CC[C@@H](C)C4)cc3)ncnc2c1 [Example 198]	10 to 100 nM			10 to 100 nM	100 to 1000 nM	100 to 1000 nM	10 to 100 nM

— patent publication US20240116877A1, “KIT KINASE INHIBITORS AND METHODS OF USE THEREOF” (Deciphera Pharmaceuticals, LLC, priority 2021, published 2024)
